Measured values: PubChem BioAssay (NCI)
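Interpolation was linear, between the two tested concentrations surrounding the appropriate level; five concentrations were tested over 48 hours in 96-well plates. TGI: concentration producing complete growth inhibition.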

Columns and labels:
Experiment in all cases: NCI anticancer screen, dose series, 48 h
SNB-19 CNS = tested on: SNB-19 CNS
HCC-2998 colon = tested on: HCC-2998 colon
HS 578T breast = tested on: HS 578T breast
SK-OV-3 ovarian = tested on: SK-OV-3 ovarian
SN12C renal = tested on: SN12C renal
NCI/ADR-RES ovarian = tested on: NCI/ADR-RES ovarian
RPMI-8226 leukemia = tested on: RPMI-8226 leukemia
A498 renal = tested on: A498 renal
UACC-62 melanoma = tested on: UACC-62 melanoma
SW-620 colon = tested on: SW-620 colon
MCF7 breast = tested on: MCF7 breast
OVCAR-8 ovarian = tested on: OVCAR-8 ovarian
SF-295 CNS = tested on: SF-295 CNS
MDA-N = tested on: MDA-N
CAKI-1 renal = tested on: CAKI-1 renal
T-47D breast = tested on: T-47D breast
786-0 renal = tested on: 786-0 renal
TK-10 renal = tested on: TK-10 renal
HT29 colon = tested on: HT29 colon
K-562 leukemia = tested on: K-562 leukemia
NCI-H522 lung = tested on: NCI-H522 lung
EKVX NSCLC = tested on: EKVX NSCLC
BT-549 breast = tested on: BT-549 breast
UO-31 renal = tested on: UO-31 renal
HCT-15 colon = tested on: HCT-15 colon
A549 NSCLC = tested on: A549 NSCLC
SR leukemia = tested on: SR leukemia
HOP-92 NSCLC = tested on: HOP-92 NSCLC
HCT-116 colon = tested on: HCT-116 colon
OVCAR-3 ovarian = tested on: OVCAR-3 ovarian
SK-MEL-5 melanoma = tested on: SK-MEL-5 melanoma
NCI-H460 lung = tested on: NCI-H460 lung
OVCAR-4 ovarian = tested on: OVCAR-4 ovarian
DU-145 prostate = tested on: DU-145 prostate
MDA-MB-435 = tested on: MDA-MB-435
LOX IMVI melanoma = tested on: LOX IMVI melanoma
SK-MEL-2 melanoma = tested on: SK-MEL-2 melanoma
U251 CNS = tested on: U251 CNS
MALME-3M melanoma = tested on: MALME-3M melanoma
KM12 colon = tested on: KM12 colon
NCI-H226 lung = tested on: NCI-H226 lung
RXF 393 renal = tested on: RXF 393 renal
ACHN renal = tested on: ACHN renal
SF-268 CNS = tested on: SF-268 CNS
M14 melanoma = tested on: M14 melanoma
UACC-257 melanoma = tested on: UACC-257 melanoma
COLO 205 colon = tested on: COLO 205 colon
SK-MEL-28 melanoma = tested on: SK-MEL-28 melanoma
MOLT-4 leukemia = tested on: MOLT-4 leukemia
OVCAR-5 ovarian = tested on: OVCAR-5 ovarian
NCI-H23 lung = tested on: NCI-H23 lung
SF-539 CNS = tested on: SF-539 CNS
PC-3 prostate = tested on: PC-3 prostate
MDA-MB-231 breast = tested on: MDA-MB-231 breast
SNB-75 CNS = tested on: SNB-75 CNS
HOP-62 NSCLC = tested on: HOP-62 NSCLC
CCRF-CEM leukemia = tested on: CCRF-CEM leukemia
HL-60(TB) leukemia = tested on: HL-60(TB) leukemia
IGROV1 ovarian = tested on: IGROV1 ovarian

Measured: TGI

COc1ccccc1N1C(=O)CC(=O)N(C(=O)CCCCCCCCC(=O)N2C(=O)CC(=O)N(c3ccccc3OC)C2=S)C1=S
not listed: HL-60(TB) leukemia | IGROV1 ovarian
> 100 µM: all other assays above

CCOC(=O)c1ccc(Nc2cnc3ccc(C(F)(F)F)cc3n2)cc1
23.5 µM: HOP-92 NSCLC
35.5 µM: HCT-15 colon
> 100 µM: SK-OV-3 ovarian | M14 melanoma
43 µM: SK-MEL-28 melanoma
37.7 µM: HL-60(TB) leukemia
35.9 µM: NCI-H226 lung
59.1 µM: HS 578T breast
26.7 µM: HCC-2998 colon
24.1 µM: HT29 colon
55.5 µM: PC-3 prostate
44.8 µM: OVCAR-3 ovarian
71.1 µM: RPMI-8226 leukemia
31.2 µM: SK-MEL-5 melanoma
24.5 µM: MOLT-4 leukemia
42.8 µM: SNB-75 CNS
32 µM: OVCAR-4 ovarian
43.7 µM: MDA-MB-231 breast
31.7 µM: SW-620 colon
47.7 µM: DU-145 prostate
33.5 µM: UACC-62 melanoma
32.3 µM: A549 NSCLC
34 µM: BT-549 breast | SF-268 CNS
63.4 µM: SF-539 CNS
50.6 µM: SF-295 CNS
44.6 µM: MDA-N
52.6 µM: SR leukemia
33.8 µM: SK-MEL-2 melanoma
61.8 µM: MDA-MB-435
58.4 µM: EKVX NSCLC
30.7 µM: CAKI-1 renal
84.7 µM: SNB-19 CNS
48.6 µM: UO-31 renal
53.7 µM: K-562 leukemia
31.8 µM: U251 CNS
26.9 µM: TK-10 renal
30.8 µM: NCI/ADR-RES ovarian
30.4 µM: IGROV1 ovarian
27.2 µM: SN12C renal | NCI-H460 lung
56 µM: UACC-257 melanoma
36.6 µM: CCRF-CEM leukemia
28.5 µM: ACHN renal | NCI-H23 lung
67.1 µM: MCF7 breast
29.3 µM: LOX IMVI melanoma | COLO 205 colon
46.6 µM: HOP-62 NSCLC
26.8 µM: 786-0 renal
28 µM: HCT-116 colon
25.8 µM: KM12 colon | RXF 393 renal
79.2 µM: MALME-3M melanoma
33.9 µM: A498 renal
46.7 µM: T-47D breast
26 µM: OVCAR-8 ovarian
74.7 µM: OVCAR-5 ovarian

O=C1C(NS(=O)(=O)c2ccccc2)=C(N(Cc2ccccc2)Cc2ccccc2)C(=O)c2ccccc21
51.3 µM: UO-31 renal
72.7 µM: RPMI-8226 leukemia
45.8 µM: SK-MEL-2 melanoma
66.1 µM: HL-60(TB) leukemia
0.584 µM: MALME-3M melanoma
59 µM: OVCAR-4 ovarian
77.4 µM: CCRF-CEM leukemia
67.8 µM: RXF 393 renal
73.2 µM: NCI-H23 lung
not listed: HCC-2998 colon | A498 renal | NCI-H522 lung
> 100 µM: all other assays above

Oc1ccccc1-n1nc2ccc3nonc3c2n1
not listed: A498 renal | RXF 393 renal
> 100 µM: all other assays above
